Holding throughout (format): cell-based
In one test the test system is E. coli. In words: In vitro antibacterial activity, microdilution MIC, E. coli. The settings on record: Escherichia coli, microdilution method, read-out: Minimal Inhibitory Concentration MIC. An excerpt:
(§1) The compounds of the invention display antibacterial activity when tested by the microdilution method as described in Heifetz, et al, Antimicr. Agents and Chemoth., 6, 124 (1974), which is incorporated herein by reference.
(§2) By use of this method, the following minimum inhibitory concentration values (MICs in μg/ml) were obtained for representative compounds of the invention.
(In general: Dilution methods test growth across graded concentrations, often in twofold steps.)

The next test relates to P. rettgeri. In words: In vitro antibacterial activity, microdilution MIC, P. rettgeri. Particulars: Providencia rettgeri, microdilution method, read-out: Minimal Inhibitory Concentration MIC.
Text: as §1, §2

In another test the test system is K. pneumoniae. In words: In vitro antibacterial activity, microdilution MIC, K. pneumoniae. The settings on record: Klebsiella pneumoniae, microdilution method, read-out: Minimal Inhibitory Concentration MIC.
Text: as §1, §2

The next test relates to E. cloacae. Description: In vitro antibacterial activity, microdilution MIC, E. cloacae. The settings on record: Enterobacter cloacae, microdilution method, read-out: Minimal Inhibitory Concentration MIC.
Text: as §1, §2

The subject of a further test is S. pyogenes. In words: In vitro antibacterial activity, microdilution MIC, S. pyogenes. Particulars: Streptococcus pyogenes, microdilution method, read-out: Minimal Inhibitory Concentration MIC.
Text: as §1, §2

The next test relates to P. aeruginosa. Description: In vitro antibacterial activity, microdilution MIC, P. aeruginosa. Particulars: Pseudomonas aeruginosa, microdilution method, read-out: Minimal Inhibitory Concentration MIC.
Text: as §1, §2

In another test the test system is S. aureus. Description: In vitro antibacterial activity, microdilution MIC, S. aureus. Particulars: microdilution method; for MIC: Staphylococcus aureus, first S. aureus line (strain not given), read-out: Minimal Inhibitory Concentration MIC; for Minimal Inhibitory Concentration MIC: second S. aureus line (strain not given).
Text: as §1, §2

A further test has as its system S. pneumoniae. Description: In vitro antibacterial activity, microdilution MIC, S. pneumoniae. Particulars: Streptococcus pneumoniae, microdilution method, read-out: Minimal Inhibitory Concentration MIC.
Text: as §1, §2

For the next test, the system named is S. faecalis. In words: In vitro antibacterial activity, microdilution MIC, S. faecalis. Particulars: Enterococcus faecalis, microdilution method, read-out: Minimal Inhibitory Concentration MIC.
Text: as §1, §2

Where [1] appears, read: first E. coli line (strain not given).
Setting [2] is: second E. coli line, last of table (strain not given).

≈ marks a conversion by molar mass, not a printed value. Where two headings read alike, the source gives them in different places.

As for `C=Cc1c(F)cc2c(=O)c(C(=O)O)cn(C3CC3)c2c1F` [Compound 5, 1-Cyclopropyl-7-ethenyl-6,8-difluoro-1,4-dihydro-4-oxo-3-quinolinecarboxylic acid], the MIC in the test on E. coli (setting [1]) stood at 0.2 mg/L (≈ 0.687 µM); with E. coli (setting [2]), 0.1 mg/L (≈ 0.343 µM); with P. rettgeri, 0.4 mg/L (≈ 1.37 µM); with K. pneumoniae, 0.4 mg/L (≈ 1.37 µM); in the test with E. cloacae, 0.1 mg/L (≈ 0.343 µM); in the test with S. pyogenes it was 0.8 mg/L (≈ 2.75 µM). Moreover, the MIC in the test with P. aeruginosa is 1.6 mg/L (≈ 5.49 µM); in the test with S. aureus it was ≤ 0.025 mg/L; with S. pneumoniae, 0.8 mg/L (≈ 2.75 µM); with S. faecalis, 0.2 mg/L (≈ 0.687 µM). Moreover, the “Minimal Inhibitory Concentration MIC” value in the test on S. aureus was ≤ 0.025 mg/L.
As to `CCn1cc(C(=O)O)c(=O)c2cc(F)c(C3CCN(Cc4ccccc4)C3)nc21` (stereo not shown) [Compound 10], the MIC was 12.5 mg/L (≈ 31.6 µM) in the test with E. coli (setting [1]); 12.5 mg/L (≈ 31.6 µM) with E. coli (setting [2]); > 25 mg/L in the test on P. rettgeri; 25 mg/L (≈ 63.2 µM) with K. pneumoniae; 12.5 mg/L (≈ 31.6 µM) in the test on E. cloacae; 12.5 mg/L (≈ 31.6 µM) in the test with S. pyogenes. Besides, the MIC with P. aeruginosa was > 25 mg/L; in the test with S. aureus, 6.3 mg/L (≈ 15.9 µM); with S. pneumoniae, 12.5 mg/L (≈ 31.6 µM); with S. faecalis, 25 mg/L (≈ 63.2 µM). For the same compound, in the test with S. aureus, the “Minimal Inhibitory Concentration MIC” value was 6.3 mg/L.

For the origin of these results see patent publication US4945160A, “Preparation of certain 7-substituted quinolones” (Warner-Lambert Company, priority 1988, dated 1990).
